US20050004186A1, “MEK inhibiting compounds” (Pfizer Inc, priority 2002, published 2005)

System: MEK
Test: Cellular assay for measuring MEK inhibition, C26CPA1 (inhibition of ERK phosphorylation in C26 cells)
Assay type: cell-based, murine
Conditions: for C26CPA1 % Inhibition @ 0.1 μM / C26CPA1 % Inhibition @ 1 μM: C26 cells; for IC50: murine colon 26 (C26) carcinoma cells, one hour at 37 C
Description: Cellular Assay for Measuring MEK Inhibition
MEK inhibitors were evaluated by determining their ability to inhibit phosphorylation of MAP kinase (ERK) in murine colon 26 (C26) carcinoma cells. Since ERK1 and ERK2 represent the only known substrates for MEK1 and MEK2, the measurement of inhibition of ERK phosphorylation in cells provides direct read out of cellular MEK inhibition by the compounds of the invention. Detection of phosphorylation of ERK was carried out either by Western blot or ELISA format. Briefly, the assays involve treatment of exponentially growing C26 cells with varying concentrations of the test compound (or vehicle control) for one hour at 37≡ C. For Western blot assay, cells were rinsed free of compound/vehicle and lysed in a solution containing 70 mM NaCl, 50 mM glycerol phosphate, 10 mM HEPES, […], 1% Triton X-100, 1 mM Na3VO4, 100 μM PMSF, 10 μM leupeptin and 10 μM pepstatin. Supernatants were then subjected to gel electrophoresis and hybridized to a primary antibody recognizing dually phosphorylated ERK1 and ERK2. To evaluate total MAPK levels, blots were subsequently ‘stripped’ and re-probed with a 1:1 mixture of polyclonal antibodies recognizing unphosphorylated ERK1 and ERK2. For pERK ELISA assay, pERK TiterZyme Enzyme immunometric Assay kits were acquired from Assay Designs, Inc (Ann Arbor, Mich.). Briefly, cells were harvested in lysis solution containing 50 mM β-glycerophosphate, 10 mM HEPES, pH7.4, 70 mM NaCl, 2 mM EDTA and 1% SDS and protein lysates were diluted 1:15 with supplied Assay buffer prior to the execution of the assay. The subsequent steps were carried out essentially as recommended by the manufacturer.

| SMILES | C26CPA1 % Inhibition @ 0.1 μM | C26CPA1 % Inhibition @ 1 μM | IC50 |
| --- | --- | --- | --- |
| CCC(C)CNc1nnc(-c2ccc(F)c(F)c2Nc2ccc(I)cc2F)o1 (stereo not drawn) [Example 50, {5-[3,4-Difluoro-2-(2-fluoro-4-iodo-phenylamino)-phenyl]-[1,3,4]oxadiazol-2-yl}-(2-methyl-butyl)-amine] | 0% | 15.2% | – |
| CN1CCCN(c2nnc(-c3ccc(F)c(F)c3Nc3ccc(I)cc3F)o2)CC1 [Example 61, {2,3-Difluoro-6-[5-(4-methyl-[1,4]diazepan-1-yl)-[1,3,4]oxadiazol-2-yl]-phenyl}-(2-fluoro-4-iodo-phenyl)-amine] | – | – | 850 nM |
| Cc1cccc(C)c1OCC(C)Nc1nnc(-c2ccc(F)c(F)c2Nc2ccc(I)cc2F)o1 (stereo not drawn) [Example 59, {5-[3,4-Difluoro-2-(2-fluoro-4-iodo-phenylamino)-phenyl]-[1,3,4]oxadiazol-2-yl}-[2-(2,6-dimethyl-phenoxy)-1-methyl-ethyl]-amine] | 0% | 0% | – |
| Fc1cc(I)ccc1Nc1c(-c2nnc(NC3CC4CCC3C4)o2)ccc(F)c1F (stereo not drawn) [Example 51, Bicyclo[2,2,1]hept-2-yl-{5-[3,4-difluoro-2-(2-fluoro-4-iodo-phenylamino)-phenyl]-[1,3,4]oxadiazol-2-yl}-amine] | 13.1% | 96% | – |
| CCCNc1nnc(-c2ccc(F)c(F)c2Nc2ccc(I)cc2F)o1 [Example 45, {5-[3,4-Difluoro-2-(2-fluoro-4-iodo-phenylamino)-phenyl]-[1,3,4]oxadiazol-2-yl}-propyl-amine] | 3.1% | 31.4% | – |
| CCc1ccc(Nc2c(-c3nnc(N(C)CCS(C)(=O)=O)o3)ccc(F)c2F)c(F)c1 [Example 121, {5-[2-(4-Ethyl-2-fluoro-phenylamino)-3,4-difluoro-phenyl]-1,3,4-oxadiazol-2-yl}-(2-methanesulfonyl-ethyl)-methyl-amine] | 0% | 26.9% | – |
| CCc1ccc(Nc2c(-c3nnc(N(C)CCc4ccccn4)o3)ccc(F)c2F)c(F)c1 [Example 127, {5-[2-(4-Ethyl-2-fluoro-phenylamino)-3,4-difluoro-phenyl]-1,3,4-oxadiazol-2-yl}-methyl-(2-pyridin-2-yl-ethyl)-amine] | 0% | 0% | – |
| CC(C)CNc1nnc(-c2ccc(F)c(F)c2Nc2ccc(I)cc2F)o1 [Example 48, {5-[3,4-Difluoro-2-(2-fluoro-4-iodo-phenylamino)-phenyl]-[1,3,4]oxadiazol-2-yl}-isobutyl-amine] | 31.7% | 66.9% | – |
| Nc1nnc(-c2ccc(F)c(F)c2Nc2ccc(Br)cc2F)o1 [Example 3, 5-[2-(4-Bromo-2-fluoro-phenylamino)-3,4-difluoro-phenyl]-[1.3,4]oxadiazol-2-ylamine] | – | – | 140 nM |
| Fc1cc(I)ccc1Nc1c(-c2nnc(N3CCCC3CN3CCCC3)o2)ccc(F)c1F (stereo not drawn) [Example 54, {2,3-Difluoro-6-[5-(2-pyrrolidin-1-ylmethyl-pyrrolidin-1-yl)-[1,3,4]oxadiazol-2-yl]-phenyl}-(2-fluoro-4-iodo-phenyl)-amine] | 21.7% | 30.8% | – |
| Nc1nnc(-c2cc(Cl)c(F)c(F)c2Nc2ccc(I)cc2F)o1 [Example 2, 5-[5-Chloro-3,4-difluoro-2-(2-fluoro-4-iodo-phenylamino)-phenyl]-[1,3,4]oxadiazol-2-ylamine] | – | – | 18 nM |
| Fc1cc(I)ccc1Nc1c(-c2nnc(NCC3CCCO3)o2)ccc(F)c1F (stereo not drawn) [Example 65, {5-[3,4-Difluoro-2-(2-fluoro-4-iodo-phenylamino)-phenyl]-[1,3,4]oxadiazol-2-yl}-(tetrahydro-furan-2-ylmethyl)-amine] | 0% | 12.7% | – |
| NCCCCNc1nnc(-c2ccc(F)c(F)c2Nc2ccc(I)cc2F)o1 [Example 14, N′1′-{5-[3,4-Difluoro-2-(2-fluoro-4-iodo-phenylamino)-phenyl]-[1,3,4]oxadiazol-2-yl}-butane-1,4-diamine] | – | – | 45 nM |
| CCc1ccc(Nc2c(-c3nnc(NCCc4cccs4)o3)ccc(F)c2F)c(F)c1 [Example 114, {5-[2-(4-Ethyl-2-fluoro-phenylamino)-3,4-difluoro-phenyl]-1,3,4-oxadiazol-2-yl}-(2-thiophen-2-yl-ethyl)-amine] | 35.4% | 46.3% | – |
| CCCN(CC1CC1)c1nnc(-c2ccc(F)c(F)c2Nc2ccc(CC)cc2F)o1 [Example 100, Cyclopropylmethyl-{5-[2-(4-ethyl-2-fluoro-phenylamino)-3,4-difluoro-phenyl]-1,3,4-oxadiazol-2-yl}-propyl-amine] | 37.1% | 40.5% | – |
| CCc1ccc(Nc2c(-c3nnc(N(C)C4CCN(C)C4)o3)ccc(F)c2F)c(F)c1 (stereo not drawn) [Example 102, {5-[2-(4-Ethyl-2-fluoro-phenylamino)-3,4-difluoro-phenyl]-1,3,4-oxadiazol-2-yl}-methyl-(1-methyl-pyrrolidin-3-yl)-amine] | 42.4% | 54.6% | – |
| CNCCNc1nnc(-c2ccc(F)c(F)c2Nc2ccc(CCO)cc2F)o1 [Example 167, 2-(4-{2,3-difluoro-6-[5-(2-methylamino-ethylamino)-1[1,3,4]oxadiazol-2-yl]-phenylamino}-3-fluoro-phenyl)-ethanol] | – | – | 910 nM |
| CN(CCc1ccccn1)c1nnc(-c2ccc(F)c(F)c2Nc2ccc(I)cc2F)o1 [Example 44, {5-[3,4-Difluoro-2-(2-fluoro-4-iodo-phenylamino)-phenyl]-[1,3,4]oxadiazol-2-yl}-methyl-(2-pyridin-2-yl-ethyl)-amine] | 5.2% | 19% | – |
| COc1ccc(CCNc2nnc(-c3ccc(F)c(F)c3Nc3ccc(I)cc3F)o2)cc1OC [Example 40, {5-[3,4-Difluoro-2-(2-fluoro-4-iodo-phenylamino)-phenyl]-[1,3,4]oxadiazol-2-yl}-[2-(3,4-dimethoxy-phenyl)-ethyl]-amine] | 0% | 26.2% | – |
| CCc1ccc(Nc2c(-c3nnc(N(CCCN(C)C)CCCN(C)C)o3)ccc(F)c2F)c(F)c1 [Example 96, N^1-(3-Dimethylamino-propyl)-N^1-{5-[2-(4-ethyl-2-fluoro-phenylamino)-3,4-difluoro-phenyl]-1,3,4-oxadiazol-2-yl}-N>3,N>3-dimethyl-propane-1,3-diamine] | 54% | 55% | – |
| Fc1cc(I)ccc1Nc1c(-c2nnc(NCCOc3ccccc3)o2)ccc(F)c1F [Example 34, {5-[3,4-Difluoro-2-(2-fluoro-4-iodo-phenylamino)-phenyl]-[1,3,4]oxadiazol-2-yl}-(2-phenoxy-ethyl)-amine] | 0% | 69% | – |
| CCCCNc1nnc(-c2ccc(F)c(F)c2Nc2ccc(I)cc2F)o1 [Example 36, Butyl-{5-[3,4-difluoro-2-(2-fluoro-4-iodo-phenylamino)-phenyl]-[1,3,4]oxadiazol-2-yl}-amine] | 23.8% | 67% | – |
